Four compounds from patent US20070160554A1, “Acyl ribonucleosides and acyl deoxyribonucleosides, compositions of, and methods of making same” (COGNIS IP MANAGEMENT GMBH, priority 2003, published 2007) can be followed below.

Like-named read-outs stand apart in the source and are kept apart here. Bounds are passed on as bounds.

Data set [1] has as its system human fibroblasts. As to the kind of experiment: Non-toxicity on quiescent human fibroblasts (second experiment: DNA, ATP, proteins, GSH/proteins). Type of data set: cell-based. As to conditions: for ATP / DNA / GSH/proteins / Proteins: quiescent fibroblasts, 3 days; for modification of growth, energetic metabolism and protein metabolism of the fibroblasts: human fibroblasts in vitro. As for the experimental part:
Uridine palmitate and uridine stearate were added in the culture medium starting from a stock solution at 1% (w/v) in DMSO. After an incubation of 3 days the number of viable cells was determined by evaluation of the levels of cellular DNA (fluorescent probe), ATP, proteins (Bradford's method) and the rate of cellular GSH (GSH is glutathione) normalised to the level of cellular proteins.

The test system of data set [2] is human fibroblasts. The conditions noted are these: for Proteins (level of cellular proteins) / LD50: 3 days; for LD50: human. As for the experimental part:
In a first experiment, human fibroblasts were inoculated in a standard cell culture medium of foetal calf serum (or FCS). After an incubation of 1 day at 37° C. under an atmosphere of air, enriched to a carbon dioxide content of 5%, the growth medium was exchanged for a standard medium with a range of concentrations of uridine, uridine palmitate and uridine stearate.

The test system of data set [3] is Melanocytes (B16 cell line). As to the kind of experiment: Inhibition of melanin synthesis in B16 melanocytes (melanin by optical density at 475 nm, cellular proteins by Bradford). It counts as cell-based, mouse. The conditions noted are these: for effect on the rate of released melanin / inhibition of melanin synthesis: B16 melanocytes, at concentrations not toxic to human fibroblasts; for Rate of Melanin / Rate of cellular proteins: B16, 3 days. The text has this:
Melanin is the pigment responsible for the colour of skin and hairs. Melanin synthesis takes place in specific organelles so called melanosomes in human melanocytes located in the basal layer of the human epidermis. This synthesis begins by oxidation of tyrosine to DOPA (dihydroxy-phenyl-alanine) by tyrosinase and then DOPA polymerises to melanin which is stored in melanosomes.
Melanocytes (B16 cell line: B16 is the name of the mouse melanoma cells used in this test.) were inoculated in standard cell culture medium of foetal calf serum (FCS). […] Uridine palmitate and ulidine stearate were added to the culture medium starting from a stock solution at 1% (w/v) in DMSO. After an incubation of 3 days, the number of viable cells was determined by the evaluation of the levels of cellularproteins (Bradford's method) and the level of synthesized melanin was measured by recording the optical density at 475 nm of cell's homogenate. The results are expressed in table 4.

In the case of `O=c1ccn([C@@H]2O[C@H](CO)[C@@H](O)[C@H]2O)c(=O)[nH]1` [Uridine, uridine, reference compound], in the data set on human fibroblasts [1] (dose 0,01 % w/v), the ATP amounted to 100 %/control, the DNA came to 103 %/control, the GSH/proteins is given as 107 %/control and the Proteins is reported as 100 %/control. For the same compound, in the data set on human fibroblasts [1] (dose 0,03 % w/v), the ATP is reported as 89 %/control, the DNA was determined as 94 %/control, the GSH/proteins was found to be 102 %/control and the Proteins turned out to be 104 %/control. Besides, the “Proteins (level of cellular proteins)” value in the data set on human fibroblasts [2] (dose 0.03 % w/v) was determined as 104 %/control. Besides, the “Proteins (level of cellular proteins)” value in the data set on human fibroblasts [2] (dose 0.1 % w/v) was 99 %/control. The “effect on the rate of released melanin / inhibition of melanin synthesis” value in data set [3] is “no or only a very poor effect”. Besides, in data set [3] (dose 0.03 % w/v), the “Rate of Melanin” value is on record as 92 % against control and the “Rate of cellular proteins” value stood at 94 % against control. In data set [3] (dose 0.1 % w/v), the “Rate of Melanin” value is 92 % against control and the “Rate of cellular proteins” value stood at 97 % against control.

In the data set with human fibroblasts [1] (dose 0,001 % w/v), `CCCCCCCCCCCCCCCC(=O)O[C@@H]1[C@H](O)[C@@H](CO)O[C@H]1n1ccc(=O)[nH]c1=O` [Mono-O-palmitoyl uridine, Mono-O-Palmitoyl Uridine] displayed an ATP of 111 %/control, a DNA of 92 %/control, a GSH/proteins of 103 %/control and a Proteins of 98 %/control. In the data set with human fibroblasts [1] (dose 0,003 % w/v), the ATP is on record as 86 %/control, the DNA was determined as 83 %/control, the GSH/proteins worked out at 108 %/control and the Proteins was 91 %/control. The “modification of growth, energetic metabolism and protein metabolism of the fibroblasts” value in the data set on human fibroblasts [1] is on record as “not modified the growth of the fibroblasts”. Also, in the data set on human fibroblasts [2], the “toxic effects on growing human fibroblasts cultured in vitro” value was “not shown any toxic effects” and the LD50 is over 0.01% w/v. In addition, in the data set on human fibroblasts [2] (dose 0.003 % w/v), the “Proteins (level of cellular proteins)” value is 92 %/control. The “Proteins (level of cellular proteins)” value in the data set on human fibroblasts [2] (dose 0.01 % w/v) turned out to be 97 %/control. In data set [3], the “effect on the rate of released melanin / inhibition of melanin synthesis” value was “strongly decreased the rate of released melanin”. Also, in data set [3] (dose 0.001 % w/v), the “Rate of Melanin” value was 98 % against control and the “Rate of cellular proteins” value came to 100 % against control. Besides, in data set [3] (dose 0.003 % w/v), the “Rate of Melanin” value is 69 % against control and the “Rate of cellular proteins” value worked out at 95 % against control. Further, in data set [3] (dose 0.01 % w/v), the “Rate of Melanin” value worked out at 44 % against control and the “Rate of cellular proteins” value stood at 110 % against control.

In the data set with human fibroblasts [1] (dose 0,0015 % w/v), `CCCCCCCCCCCCCCCCCC(=O)O[C@@H]1[C@H](O)[C@@H](CO)O[C@H]1n1ccc(=O)[nH]c1=O` [Mono-O-stearoyl uridine, Mono-O-Stearoyl Uridine] had an ATP of 91 %/control, a DNA of 94 %/control, a GSH/proteins of 98 %/control and a Proteins of 96 %/control. In the data set with human fibroblasts [1] (dose 0,005 % w/v), this compound returned an ATP of 92 %/control, a DNA of 100 %/control, a GSH/proteins of 135 %/control and a Proteins of 95 %/control. Also, the “modification of growth, energetic metabolism and protein metabolism of the fibroblasts” value in the data set with human fibroblasts [1] is reported as “not modified the growth of the fibroblasts”. For the same compound, in the data set on human fibroblasts [2], the “toxic effects on growing human fibroblasts cultured in vitro” value is reported as “not shown any toxic effects” and the LD50 is over 0.01% w/v. The “Proteins (level of cellular proteins)” value in the data set on human fibroblasts [2] (dose 0.0005 % w/v) is recorded as 90 %/control. Moreover, the “Proteins (level of cellular proteins)” value in the data set with human fibroblasts [2] (dose 0.0015 % w/v) is listed as 87 %/control. The “effect on the rate of released melanin / inhibition of melanin synthesis” value in data set [3] is on record as “strongly decreased the rate of released melanin”. Moreover, in data set [3] (dose 0.001 % w/v), the “Rate of Melanin” value is given as 84 % against control and the “Rate of cellular proteins” value is recorded as 98 % against control. Further, in data set [3] (dose 0.003 % w/v), the “Rate of Melanin” value is 65 % against control and the “Rate of cellular proteins” value stood at 92 % against control. For the same compound, in data set [3] (dose 0.01 % w/v), the “Rate of Melanin” value came out at 19 % against control and the “Rate of cellular proteins” value came out at 99 % against control.

For the compound `CCCC(=O)OC[C@H]1O[C@@H](n2ccc(=O)[nH]c2=O)[C@H](OC(=O)CCC)[C@@H]1OC(=O)CCC` [Tri-O-Butyryl-Uridine, reference compound], the “effect on the rate of released melanin / inhibition of melanin synthesis” value in data set [3] is on record as “no or only a very poor effect”. For the same compound, the “Rate of Melanin” value in data set [3] (dose 0.001 % w/v) came out at 106 % against control; in data set [3] (dose 0.003 % w/v) it was 106 % against control; in data set [3] (dose 0.01 % w/v) it was 105 % against control. For the same compound, the “Rate of cellular proteins” value in data set [3] (dose 0.001 % w/v) is on record as 100 % against control; in data set [3] (dose 0.003 % w/v), 106 % against control; in data set [3] (dose 0.01 % w/v), 103 % against control.
